Results published in US20100287636A1, “COMPOSITIONS AND METHODS FOR INHIBITING INDUCIBLE T CELL KINASE (ITK) AND TREATING ASTHMA AND BRONCHIAL INFLAMMATIONS” (San Diego State University Foundation, dba San Diego State …, priority 2007, published 2010).
One block for each molecule: values may come before it. No end group written: not given here.

What was measured:
[1] = tested on: Jurkat cells; assay: viability measurements on Jurkat cells; assay type: cell-based; conditions: highest concentration tested
[2] = biological target: T1, ITK-SLP76 interaction (Homo sapiens, UniProt Q08881); assay: inhibition of inducible ITK-SLP76 association in stimulated Jurkat cells (co-immunoprecipitation); assay type: cell-based
T1 construct: endogenous in cells; host or cells: Jurkat T cells
T1 sequence (Q08881 1-620): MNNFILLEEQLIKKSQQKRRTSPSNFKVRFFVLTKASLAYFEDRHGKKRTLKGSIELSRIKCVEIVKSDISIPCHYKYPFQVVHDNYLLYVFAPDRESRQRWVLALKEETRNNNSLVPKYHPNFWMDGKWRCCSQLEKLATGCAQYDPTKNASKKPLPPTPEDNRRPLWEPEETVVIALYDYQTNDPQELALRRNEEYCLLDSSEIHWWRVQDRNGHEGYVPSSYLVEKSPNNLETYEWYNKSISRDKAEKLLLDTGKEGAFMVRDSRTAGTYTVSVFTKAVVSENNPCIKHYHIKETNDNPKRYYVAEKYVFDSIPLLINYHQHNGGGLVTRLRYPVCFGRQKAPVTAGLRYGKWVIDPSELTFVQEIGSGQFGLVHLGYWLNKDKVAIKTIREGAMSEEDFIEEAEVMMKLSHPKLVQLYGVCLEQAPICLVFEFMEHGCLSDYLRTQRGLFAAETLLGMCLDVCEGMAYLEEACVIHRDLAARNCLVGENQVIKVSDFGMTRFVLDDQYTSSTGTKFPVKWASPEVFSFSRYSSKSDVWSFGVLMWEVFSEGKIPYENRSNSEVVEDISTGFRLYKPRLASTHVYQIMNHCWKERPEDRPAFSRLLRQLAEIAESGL
Procedure: (§1) FIG. 1. Inducible Association between ITK and SLP76: Jurkat T cells were stimulated through their TCR for various periods of time and then lysed. Lysates were treated with antibody to SLP-76 (IP: anti-SLP76) and the immune complexes were resolved by gel electrophoresis. The resolved proteins were transferred onto a membrane where ITK and SLP76 were visualized by probing with specific antibodies reactive with these proteins. First, ITK was probed (IB: anti-ITK) and subsequently SLP76 (IB: anti-SLP76). […] The interpretation is that ITK and SLP76 participate in a stimulation inducible signaling complex. Furthermore, the association of ITK and SLP76 in this complex is time dependent. It happens at one (1) minute post stimulation and then the two proteins dissociate.
(§2) FIG. 4. Inhibition of ITK-SLP76 inducible association by the polyArg-SLP76 peptide conjugate of the invention: We next addressed the important question of whether the presence of the exemplary SLP76 peptide of the invention disrupts the physical association between ITK and SLP76. Jurkat cells were stimulated as described under FIG. 1 above in the presence or absence of various concentrations of the exemplary Arg-conjugated SLP76 peptide of the invention. […] This index was calculated by correcting the ITK signals for the total of SLP 76 signal in each lane and then calculating the ratio over the non-stimulated control. […]

[3] = biological target: T2, ITK (Homo sapiens, UniProt Q08881); assay: phosphorylation of ITK on Tyr 511 in Jurkat cells (flow cytometry); assay type: cell-based; conditions: text does not separate Jurkat and mouse splenocytes, read-out: peptide concentration for fifty percent inhibition of ITK phosphorylation
T2 construct: endogenous in cells; host or cells: Jurkat T cells
T2 sequence (Q08881 1-620): T1 sequence (Q08881 1-620)
Procedure: (§3) FIG. 6. […] Following stimulation the cells were stained with specific anti-ITK phosphotyrosine antibodies obtained from a commercial source (BD Biosciences) and following the manufacturer's instructions for intracytoplasmic staining. The stained samples were analyzed in a flow cytometer and the percent phosphorylation related to control (100%) was quantified. […] Fifty percent inhibition was achieved by approximately 1 μM peptide

[4] = biological target: T3, ITK (Mus musculus, UniProt Q03526); assay: phosphorylation of ITK on Tyr 511 in mouse splenocytes (flow cytometry); assay type: cell-based; conditions: text does not separate Jurkat and mouse splenocytes, read-out: peptide concentration for fifty percent inhibition of ITK phosphorylation
T3 construct: endogenous in cells; host or cells: primary mouse splenic lymphocytes
T3 sequence (Q03526 1-625): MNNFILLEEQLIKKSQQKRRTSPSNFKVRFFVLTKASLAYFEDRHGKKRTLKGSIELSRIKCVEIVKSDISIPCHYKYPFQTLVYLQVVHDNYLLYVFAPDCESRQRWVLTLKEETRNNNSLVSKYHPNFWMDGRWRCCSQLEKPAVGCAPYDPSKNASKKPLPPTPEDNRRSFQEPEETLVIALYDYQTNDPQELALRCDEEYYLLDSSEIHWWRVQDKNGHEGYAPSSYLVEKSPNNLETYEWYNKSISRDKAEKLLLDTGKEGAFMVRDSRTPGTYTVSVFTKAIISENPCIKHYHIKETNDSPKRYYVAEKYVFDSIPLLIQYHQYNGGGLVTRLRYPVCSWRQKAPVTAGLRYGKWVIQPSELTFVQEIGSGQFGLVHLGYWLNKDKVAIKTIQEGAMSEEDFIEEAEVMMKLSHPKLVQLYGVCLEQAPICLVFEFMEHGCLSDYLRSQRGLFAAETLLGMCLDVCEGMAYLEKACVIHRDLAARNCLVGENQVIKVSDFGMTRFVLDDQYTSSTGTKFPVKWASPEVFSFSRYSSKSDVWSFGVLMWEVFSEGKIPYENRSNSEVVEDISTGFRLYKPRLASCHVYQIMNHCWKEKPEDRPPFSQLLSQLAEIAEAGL
Text: In view of the significant degree of ITK-SLP 76 inhibition mediated by the exemplary arginine-SLP 76 peptide conjugate of the invention, henceforth called R9-QQP, the next question was whether the exemplary R9-QQP peptide can inhibit the phosphorylation of ITK. This is important because it represents an accurate index of ITK activity; see e.g., referenced (14), below. Furthermore, the data described above have been performed by using the Jurkat T cell line. Even though this is a very useful cellular model for research, it is a leukemic cell line and thus, data obtained with this model should be confirmed in a more normal physiological substrate. Therefore, we also tested the effect of R9-QQP on primary mouse splenic lymphocytes.
as §3

[5] = biological target: T4, SH3 domain of ITK (Mus musculus, UniProt Q03526); conditions: chemical shift perturbation assays, reference (17); read-out: Kd of the in vitro interaction between peptide and the SH3 domain of ITK; cited from earlier work
T4 sequence (Q03526 177-237 limits assumed): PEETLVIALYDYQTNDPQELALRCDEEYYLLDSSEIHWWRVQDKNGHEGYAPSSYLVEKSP

[6] = biological target: T5, Inducible T cell Kinase (ITK), endogenous in Jurkat T cells (human, UniProt Q08881 1-620); assay: co-IP from TCR-stimulated Jurkat T cell lysates (IP anti-SLP76, IB anti-ITK)
T5 construct: Endogenous intracellular ITK from Jurkat T cell lysates; The tie rests on Jurkat being a human T cell line
T5 sequence: T1 sequence (Q08881 1-620)
Procedure: as §1

[7] = biological target: T6, R9 (nine Arginine amino acids by themselves)
T6 chain: RRRRRRRRR

[8] = biological target: R9-Scrambled arginine-SLP 76 peptide conjugate (R9-SCR)
[9] = biological target: T5, Inducible T cell Kinase (ITK), …; assay: competition in cells: co-IP of ITK with SLP76 from stimulated Jurkat cells against peptide concentration (association index, average of three experiments)
Procedure: as §1, §2

B2: ITK, endogenous in mouse splenic lymphocytes (protein)
chain: T3 sequence (Q03526 1-625)
ITK Tyr 511 phosphorylation, flow cytometry, primary mouse splenic lymphocytes [7]: None of the two control peptides had significant effects on the phosphorylation of ITK in either Jurkat or primary mouse splenic lymphocytes | ITK Tyr 511 phosphorylation, flow cytometry, primary mouse splenic lymphocytes [8]: None of the two control peptides had significant effects on the phosphorylation of ITK in either Jurkat or primary mouse splenic lymphocytes

B3: R9-QQP, arginine-SLP76 peptide conjugate RRRRRRRRRQQPPVPPQRPMA (peptide)
peptide: RRRRRRRRRQQPPVPPQRPMA
notes: Synthetic cell-penetrating peptide; It was loaded into Jurkat cells or mouse splenocytes, or injected intraperitoneally into mice; A fluorescein-labelled version was used only for uptake studies, which are not recorded; also called Arg-SLP76 conjugate peptide; polyArg-SLP76 peptide conjugate
IC50 [9]: ~1 µM

Second part, led by results:

inhibition at 1 µM ([2]; 1 μM of peptide, Jurkat cells stimulated 1 minute): ~50% | IC50 ([2]; Jurkat cells, read-out: concentration for 50% inhibition in the ITK-SLP 76 association): ~1 µM | IC50 [3]: ~1 µM | IC50 [4]: ~1 µM
Molecule: RRRRRRRRRQQPPVPPQRPMA [R9-QQP]
toxic effects on Jurkat cells (viability) [1]: no toxic effects | Kd [5]: 0.77 µM

binding result [6]: binds
B1: SLP76, endogenous in Jurkat T cells (other, UniProt Q13094 1-533, looked up)
chain: MALRNVPFRSEVLGWDPDSLADYFKKLNYKDCEKAVKKYHIDGARFLNLTENDIQKFPKLRVPILSKLSQEINKNEERRSIFTRKPQVPRFPEETESHEEDNGGWSSFEEDDYESPNDDQDGEDDGDYESPNEEEEAPVEDDADYEPPPSNDEEALQNSILPAKPFPNSNSMYIDRPPSGKTPQQPPVPPQRPMAALPPPPAGRNHSPLPPPQTNHEEPSRSRNHKTAKLPAPSIDRSTKPPLDRSLAPFDREPFTLGKKPPFSDKPSIPAGRSLGEHLPKIQKPPLPPTTERHERSSPLPGKKPPVPKHGWGPDRRENDEDDVHQRPLPQPALLPMSSNTFPSRSTKPSPMNPLPSSHMPGAFSESNSSFPQSASLPPYFSQGPSNRPPIRAEGRNFPLPLPNKPRPPSPAEEENSLNEEWYVSYITRPEAEAALRKINQDGTFLVRDSSKKTTTNPYVLMVLYKDKVYNIQIRYQKESQVYLLGTGLRGKEDFLSVSDIIDYFRKMPLLLIDGKNRGSRYQCTLTHAAGYP
notes: whole, on cells; Endogenous intracellular adaptor protein, immunoprecipitated from Jurkat lysates with anti-SLP76 antibody
